Experiments:
purified LasB = target: T1, purified LasB (Pseudomonas aeruginosa, UniProt P14756); assay: LasB inhibition, fluorimetric Abz-AGLA-Nba hydrolysis assay with purified LasB; assay type: biochemical
T1 construct: The mature LasB protein is a 33 kDa metalloprotease, which is secreted from P. aeruginosa; host or cells: P. aeruginosa PAO1 (native secretion, culture supernatant)
Text: This was chosen as the starting point for a medicinal chemistry-driven lead optimization program aiming to improve potency and solubility whilst retaining selectivity against host metalloenzymes. All synthesized compounds were initially assessed in a fluorimetric assay measuring hydrolysis of a fluorogenic substrate Abz-Ala-Gly-Leu-Ala-4-nitrobenzylamide (Abz-AGLA-Nba) by purified LasB and IC50 values determined (Tables 1 and 2). Inhibition of elastin hydrolytic activity was confirmed using an orthogonal assay measuring hydrolysis of Elastin Congo Red (ECR) complex by LasB prepared directly from a P. aeruginosa culture supernatant (Tables 1 and 2). […] Aqueous solubility was determined for most compounds (Tables 1 and 2).
Native LasB protein was purified from culture supernatants of P. aeruginosa strain PAO1 (Charles River Laboratories, U.K.). Briefly, the sample was concentrated by ultrafiltration and the protein was purified by chromatography using an anion exchange (pH 8.5) step followed by gel filtration. This procedure yielded an enzyme preparation (0.8 mg/mL) of >98% purity. The enzyme was stored at −80 °C.
(§1) LasB inhibition assays were performed using purified LasB enzyme (1 ng/well) for compound screening or using culture supernatants (prepared as described in the ECR assay) for testing LasB variants. Hydrolysis of the fluorogenic peptide substrate 2-aminobenzoyl-Ala-Gly-Leu-Ala-4-nitrobenzylamide (Abz-AGLA-Nba; Peptide International) in 50 mM Tris-HCl (pH 7.4), supplemented with 2.5 mM CaCl2 was followed using an Envision microplate reader (PerkinElmer) at 315 nm excitation and 430 nm emission. For screening of lead compounds, assays were performed in the presence of 0.01% Triton X-100 with a range of inhibitor concentrations from 0.003 to 3.2 μM. IC50 values were determined from Hill plots using Dotmatics Studies ELN software. For the mechanism of inhibition studies, hydrolysis rates were measured in the presence of variable concentrations of substrate and inhibitor, and the inhibition constant (Ki) was determined using Dixon plot analysis.[31]

[1] = Cytotoxicity screening (MTS), BSMC; assay type: cell-based; details: human, bronchial smooth muscle cells (BSMC)
Procedure: Bronchial smooth muscle cells (BSMC, Lonza CC-2576), small airway epithelial cells (SAEC, Lonza CC-2547), or HepG2 cells (ATCC HB-8065) were seeded in 96-well plates at a density of 25,000 per well. Culture of these cells throughout the protocol utilized incubation at 37 °C, 5% CO2 in a humidified atmosphere, with BSMC and SAEC cells cultured in cell-specific media (Lonza) and HepG2 cells cultured in RPMI 1640 medium containing Glutamax (Gibco) and 10% fetal bovine serum. Plates containing BSMC cells were collagen coated to assist with cell adhesion. Following an overnight settling period, media was replaced with fresh media, with, or without, compound. Compound concentrations tested were 1, 3, 10, 30, and 100 μM, in duplicate. The cells were incubated with compound for 24 h. Control (1% DMSO) and positive standards terfenadine- and salmeterol-treated groups were included for both cell lines. […] The reaction was stopped with 12.5 μL of 10% SDS, plates briefly shaken, and absorbance (490 nm) read using a Spectramax M5e plate reader (Molecular Devices). Percentages of viable cells were calculated as: (test sample Abs 490 nM-mean blank Abs 490 nm)/(mean control Abs 490 nM-mean blank Abs 490 nm) × 100.

LasB WT (PAO1 reference) = target: T2, LasB WT (PAO1 reference) (Pseudomonas aeruginosa, UniProt P14756); assay: LasB variant inhibition, Abz-AGLA-Nba assay with culture supernatant: WT; assay type: biochemical, P. aeruginosa
T2 construct: endogenous in cells; host or cells: P. aeruginosa strains of WT lasB genotype, culture supernatant
T2 sequence (P14756 198-498): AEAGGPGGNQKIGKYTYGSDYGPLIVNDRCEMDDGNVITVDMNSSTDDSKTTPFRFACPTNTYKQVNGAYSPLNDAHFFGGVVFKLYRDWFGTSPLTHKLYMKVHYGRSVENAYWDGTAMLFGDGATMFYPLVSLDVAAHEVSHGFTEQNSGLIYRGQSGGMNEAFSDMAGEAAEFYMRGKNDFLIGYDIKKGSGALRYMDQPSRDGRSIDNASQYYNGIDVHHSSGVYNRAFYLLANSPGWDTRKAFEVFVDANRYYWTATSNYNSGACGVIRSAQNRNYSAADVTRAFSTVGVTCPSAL
Text: Compounds 12 and 16 were discovered as a result of optimizing potency against the LasB protein expressed from the wild-type (WT) reference strain P. aeruginosa PAO1. To understand the relative prevalence of the WT LasB protein versus other variants in clinical respiratory P. aeruginosa strains, the full-length lasB gene was amplified by PCR from 255 clinical isolates (obtained from CF sputum samples). […] Most changes were identified in the mature peptide, however some occurred in the propeptide domain, which could affect LasB processing (marked in italics in Table 4).
as §1, with “For screening of lead compounds, assays were performed in the presence of 0.01% Triton X-100 with a range of inhibitor concentrations from 0.003 to 3.2 μM.” left out

IL-1β activation = IL-1β activation in P. aeruginosa-infected THP-1 macrophages (HEK IL-1R-lux reporter assay); assay type: cell-based, human; details: Homo sapiens; PAO1-infected THP-1 macrophages, IL-1 reporter assay; read-out: EC50, decrease in IL-1β activation
Procedure: Further to showing in vitro inhibition of LasB-mediated pro-IL-1β proteolysis, experiments were performed to determine the effect of compounds 12 and 16 on IL-1β activation and functionality in human macrophage cell cultures infected with P. aeruginosa PAO1, or an isogenic lasB deletion mutant thereof (ΔlasB). In these experiments, the levels of LasB activity in culture supernatants were measured via hydrolysis of the Sub115 fluorescent peptide, while the effect of LasB activity on IL-1β activation (functionality) was measured using a luciferase reporter cell line sensitive to IL-1β induction (Figure 3).
Human THP-1 macrophages were cultured by conventional methods then, pre-infection, culture media were replaced by RPMI lacking phenol red and antibiotics. […] After 2 h post-infection, 50 μL aliquots of supernatant were removed and used to quantitate both LasB activity and IL-1β functionality. To determine LasB activity, 50 μL of supernatant was added to Sub115 IL-1β peptide and hydrolysis of Sub115 was monitored spectrophotometrically with excitation at 355 nm and emission at 450 nm, as described above. Results were expressed as relative fluorescence units (RFU).
To determine IL-1β functionality, generation of an IL-1 signal was quantified by adding 50 μL of supernatant to HEK IL-1R-lux reporter cells cultured in RPMI supplemented with 5% heat-inactivated FBS, 200 μg/mL penicillin/streptomycin, 200 μg/mL hygromycin, 100 μg/mL zeomycin, and 0.5 μg/mL puromycin. No bacteria survived in this antibiotic condition; 18 h post-treatment, IL-1β-dependent luciferase induction was assayed by luminescence measured with D-luciferin substrate (Steady-Luc, Biotium) on a multimode reader (PerkinElmer) and expressed as relative luminescence units (RU), as previously described.[16]
In the first variation, experimental infections were performed with P. aeruginosa PAO1 and ΔlasB bacteria incubated with varying quantities of inhibitor at final concentrations ranging from 0.5 to 8 μM. […]

T1 sequence (P14756 198-498): as above

SMILES	IC50 (purified LasB)	Ki (purified LasB)	IC50 at 24 h [1]	IC50 (LasB WT (PAO1 reference))	EC50 (IL-1β activation)
COc1cc2sc(CNC(=O)C3(CC(=O)O)Cc4cc(F)c(F)cc4C3)nc2cc1OCCC[N+](C)(CCO)CCO [Compound 16]	0.08 µM	0.032 µM	> 100 µM	0.177 µM	~0.5 µM
COc1cc2sc(CNC(=O)C3(CC(=O)O)Cc4ccccc4C3)nc2cc1OCCC[N+](C)(C)C [Compound 12]	0.13 µM	0.035 µM	> 100 µM	0.222 µM	~0.5 µM

From article PMC9926489, “Chemical Optimization of Selective Pseudomonas aeruginosa LasB Elastase Inhibitors and Their Impact on LasB-Mediated Activation of IL-1β in Cellular and Animal Infection Models” (ACS Infectious Diseases, 2023)
